In ChEMBL document CHEMBL1137218, “Long hydrocarbon chain ether diols and ether diacids that favorably alter lipid disorders in vivo” (J Med Chem, 2004):

How the values were obtained:
[1] = test system: Rattus norvegicus; assay: Serum Triglyceride levels in female obese rats one week post treatment at 3 mg/kg oral dose; pretreatment value = 769 mg/dL; type: functional
[2] = test system: Rattus norvegicus; assay: Serum NEFA levels in female obese rats one week post treatment at 3 mg/kg oral dose; pretreatment value = 1.2 mg/dL; type: functional
[3] = test system: Rattus norvegicus; assay: Insulin levels in female obese rats one week post treatment at 30 mg/kg oral dose; pretreatment value = 9.3 ng/mL; type: functional
[4] = test system: Rattus norvegicus; assay: Insulin levels in female obese rats one week post treatment at 100 mg/kg oral dose; pretreatment value = 12.7 ng/mL; type: functional
[5] = test system: Rattus norvegicus; assay: Serum HDL cholesterol levels in female obese rats one week post treatment at 30 mg/kg oral dose; pretreatment value = 42 mg/dL; type: functional
[6] = test system: Rattus norvegicus; assay: Serum NEFA levels in female obese rats one week post treatment at 100 mg/kg oral dose; pretreatment value = 1.1 mg/dL; type: functional
[7] = test system: Rattus norvegicus; assay: Insulin levels in female obese rats two weeks post treatment at 100 mg/kg oral dose; pretreatment value = 12.7 ng/mL; type: functional
[8] = test system: Rattus norvegicus; assay: Serum HDL cholesterol levels in female obese rats one week post treatment at 3 mg/kg oral dose; pretreatment value = 57 mg/dL; type: functional
[9] = test system: Rattus norvegicus; assay: Insulin levels in female obese rats one week post treatment at 100 mg/kg oral dose; pretreatment value = 8.6 ng/mL; type: functional
[10] = test system: Rattus norvegicus; assay: Serum HDL cholesterol levels in female obese rats two weeks post treatment at 100 mg/kg oral dose; pretreatment value = 58 mg/dL; type: functional
[11] = test system: Rattus norvegicus; assay: Serum Non-HDL cholesterol levels in female obese rats two weeks post treatment at 3 mg/kg oral dose; pretreatment value = 29 mg/dL

| Compound | Activity [1] | Activity [2] | Activity [3] | Activity [4] | Activity [5] | Activity [6] | Activity [7] | Activity [8] | Activity [9] | Activity [10] | Activity [11] |
| --- | --- | --- | --- | --- | --- | --- | --- | --- | --- | --- | --- |
| CC(C)(CO)CCCCOCCCCC(C)(C)CO | 770 mg/dL | 1.7 mg/dL | 14.2 ng/mL | 14.5 ng/mL | 149 mg/dL | 0.76 mg/dL | 12.8 ng/mL |  |  |  |  |
| CC(C)(CO)CCCCCOCCCCCC(C)(C)CO |  |  |  |  |  |  |  | 55 mg/dL | 3.5 ng/mL | 134 mg/dL | 29 mg/dL |
